In publication PMC9126943, “ADAMTS4-specific MR probe to assess aortic aneurysms in vivo using synthetic peptide libraries” (Nature Communications, 2022):
“Also recorded” adds a separate entry of the source. Where a SMILES comes first, the peptide text is derived from it. Bridges are numbered along the chain shown (N, C = ends). The star is where a group is joined. Cy5(nonsulfonated) = CN1C(=CC=CC=CC2=[N+](CCCCCC(=O)*)c3ccccc3C2(C)C)C(C)(C)c2ccccc21

Biological target: T1, ADAMTS1 (Homo sapiens, UniProt Q9UHI8)
T1 construct: His; purchased BioTeZ Berlin-Buch GmbH 30 400 402
T1 sequence (Q9UHI8 253-967): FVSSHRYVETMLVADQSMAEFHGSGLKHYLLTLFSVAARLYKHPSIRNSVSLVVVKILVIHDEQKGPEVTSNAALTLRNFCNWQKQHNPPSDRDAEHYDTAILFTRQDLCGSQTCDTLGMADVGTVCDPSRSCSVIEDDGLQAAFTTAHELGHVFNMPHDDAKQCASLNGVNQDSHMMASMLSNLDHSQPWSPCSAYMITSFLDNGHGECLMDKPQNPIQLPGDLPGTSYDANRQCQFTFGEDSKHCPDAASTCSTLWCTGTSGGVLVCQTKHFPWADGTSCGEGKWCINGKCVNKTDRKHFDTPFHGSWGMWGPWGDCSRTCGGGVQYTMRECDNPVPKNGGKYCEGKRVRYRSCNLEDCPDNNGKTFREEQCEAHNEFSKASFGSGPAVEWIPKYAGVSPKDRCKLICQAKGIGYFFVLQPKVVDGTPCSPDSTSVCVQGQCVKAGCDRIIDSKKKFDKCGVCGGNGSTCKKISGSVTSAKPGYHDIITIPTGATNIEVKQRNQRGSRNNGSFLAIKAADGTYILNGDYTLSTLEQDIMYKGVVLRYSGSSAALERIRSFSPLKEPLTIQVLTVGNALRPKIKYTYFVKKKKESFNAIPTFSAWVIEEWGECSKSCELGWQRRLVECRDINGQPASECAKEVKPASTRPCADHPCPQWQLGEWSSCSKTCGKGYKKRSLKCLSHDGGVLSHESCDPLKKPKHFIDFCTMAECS
Test: MST instrument, ligand-dependent fluorescence change, Cy5-labeled peptide vs ADAMTS1
Assay type: binding
Details: Cy5-labeled peptide 3 nM, ADAMTS1 starting concentration 4.88 µM, n = 3
Method: Microscale thermophoresis (MST) was performed on a Monolith Pico (NanoTemper, Munich, Germany). The Cy5-labeled peptides were diluted into the MST buffer (150 mM NaCl, 50 mM TRIS-HCl, 5 mM CaCl2, and Tween-20) to reach a dilution of 6 nM. ADAMTS4, ADAMTS5, and ADAMTS1 were directly used with the supplied concentration. For ADAMTS4, the starting concentration was 4.96 µM, while for ADAMTS1 it was 4.88 µM and for ADAMTS5 it was 2.46 µM. Since we saw a loss of binding after centrifugation, the use of protein concentrators were inappropriate. 20 µl of the protein solutions were transferred into a PCR tube. 10 µl of this first vial was transferred into a second vial and mixed by pipetting with 10 µl of the MST buffer. […] The capillaries were transferred into the Monolith tray and measured with 10% excitation power on the pico-red excitation on high MST power at 25 °C. […] We detected a ligand-dependent fluorescence change for some of the systems. We checked for ADAMTS4 and the ADAMTS4-specific-Cy5-labeled probe via a saturation test for specifying the ligand-dependent fluorescence change. […] The samples were heated at 95 °C for 5 min and measured in the MST. The fluorescence difference between the concentrations was afterward at the same level. Each measurement was repeated three times independently and the binding constant was calculated by merging all three measurements. […]

## C[N+]1=C(C=CC=CC=C2N(CCCCCC(=O)NCCCC[C@H](NC(=O)CNC(=O)CNC(=O)[C@H](CO)NC(=O)CNC(=O)CNC(=O)[C@H](CO)NC(=O)[C@@H]3CSSC[C@H](N)C(=O)N[C@@H](CO)C(=O)N[C@@H](CCCNC(=N)N)C(=O)N[C@@H](CCCNC(=N)N)C(=O)NCC(=O)N3)C(=O)NCC(N)=O)c3ccccc3C2(C)C)C(C)(C)c2ccccc21 [Cy5-labeled probe] (H-CSRRGCSGGSGGK(Cy5(nonsulfonated))G-NH2; disulfide 1-6; N-terminus and C-terminus assumed)
  binding to ADAMTS1, in words: determination of the binding constant is not possible; also recorded: plateau was not reached; also recorded: a ligand dependent fluorescence change occurs
